Measured values reported in article PMC11697113, “The Hsc70 system maintains the synaptic SNARE protein SNAP-25 in an assembly-competent state and delays its aggregation [drawing 1]” (The Journal of Biological Chemistry, 2024).

Biological target: T1, Hsc70 (Homo sapiens, UniProt P11142)
T1 construct: 6X His-tag (TEV-cleavable) (cleaved yes); made in house; host or cells: E. coli Rosetta (DE3)
Experiment: Competition binding vs FITC-p5 by fluorescence anisotropy
Conditions: Hsc70 5 μM, FITC-p5 50 nM, competitor 0 to 200 μM, phosphate buffer pH 7.4, overnight 4 °C, three independent experiments; for relative affinity for Hsc70: fluorescence anisotropy, comparator LOOPP
Description: Figure 3 Hsc70 forms complexes with SNAP-25.A, native PAGE of SNAP-25 (10 μM) in the presence and absence of Hsc70 (2 μM). The difference in signal intensity of His-SNAP25 probed with antibody is likely due to altered epitope exposure upon formation of the SNAP-25-Hsc70 complex. B, binding of SNAP-25 (black), SNAP-25 SNN (SNNFR, orange), and SNC (SNCFR, green)) fragments to Hsc70 by competition followed by fluorescence anisotropy. Increasing concentrations of the competitors were added to a complex of Hsc70 (5 μM) and FITC-p5 peptide (50 nM). Error bars represent SDs from three independent experiments.
To pin down the regions in SNAP-25 where Hsc70 binds we expressed the individual SNN and SNC fragments of SNAP-25 and tested their ability to compete for Hsc70 binding to an FITC-labeled p5 peptide (ALLLSAPRR).
Figure 5 SNN and SNC peptides interact with the canonical substrate-binding site of Hsc70.A, ATPase activity of Hsc70 (2 μM) in the absence (gray) and presence of 200 μM SNNP (orange) and SNCP (green) peptides. Error bars represent the SDs from three independent experiments. B, binding of SNAP-25 (black), SNNP (orange), LoopP (blue), and SNCP (green) peptides to Hsc70 followed by competition for FITC-p5 peptide using fluorescence anisotropy. Increasing concentrations of the competitors were added to a complex of Hsc70 (5 μM) and FITC-p5 peptide (50 nM). Error bars represent SDs from three independent experiments. C, structure of the canonical substrate-binding site of human HspA1 (PDB 4po2) illustrating the location of Hsc70 residues Ile 403 and Ile 440 in red and green spheres, respectively (N.B., Hsc70 and HspA1 share […] sequence identity). The SBD is shown in gray, bound substrate in cyan sticks, and the side chain of the residue occupying the 0th position in the chaperone (“anchor residue”) in orange ball and sticks. For better visualization of the substrate-binding site, residues 512 to 613, 405 to 408, and 431 were removed in this illustration of the structure. D, the Ile region of the ^1H-^13 C HMQC spectra of Ile-^13CH3-labeled Hsc70 (40 μM) in the absence (black) and in the presence of unlabeled SNNP (orange) and SNCP (green) peptides (200 μM).
To further characterize the binding of the SNAP-25 peptides to Hsc70 we used competition assays as above. Peptides SNNP, LOOPP, and SNCP were titrated against the protein-peptide complex of Hsc70 and FITC-p5 and fluorescence anisotropy was monitored to assess how well the SNAP-25 peptides displaced the model peptide.
Direct binding between the p5 peptide (QSRLLLSAPRRAA) and Hsc70 was carried out as described previously ([52]). […] Fluorescence anisotropy was measured in a BioTek plate reader (BioTek) with excitation at 485 nm and emission at 516 nm.
The measured anisotropy values were converted to fraction bound (fb) using the equation: fb=(r−r0)/(rb−r0) where r is the anisotropy value at any point, r0 is the anisotropy value of FITC-p5 in the absence of Hsc70, and rb is the anisotropy value of FITC-p5 when fully bound to Hsc70. […]
For competition assays, the concentrations of Hsc70 and FITC-P5 were kept constant at 5 μM and 50 nM, respectively, and the competitor substrate was titrated from 0 to 200 μM in phosphate buffer. […] Fluorescent anisotropy was measured as described above. […]

T1 sequence (P11142 whole entry): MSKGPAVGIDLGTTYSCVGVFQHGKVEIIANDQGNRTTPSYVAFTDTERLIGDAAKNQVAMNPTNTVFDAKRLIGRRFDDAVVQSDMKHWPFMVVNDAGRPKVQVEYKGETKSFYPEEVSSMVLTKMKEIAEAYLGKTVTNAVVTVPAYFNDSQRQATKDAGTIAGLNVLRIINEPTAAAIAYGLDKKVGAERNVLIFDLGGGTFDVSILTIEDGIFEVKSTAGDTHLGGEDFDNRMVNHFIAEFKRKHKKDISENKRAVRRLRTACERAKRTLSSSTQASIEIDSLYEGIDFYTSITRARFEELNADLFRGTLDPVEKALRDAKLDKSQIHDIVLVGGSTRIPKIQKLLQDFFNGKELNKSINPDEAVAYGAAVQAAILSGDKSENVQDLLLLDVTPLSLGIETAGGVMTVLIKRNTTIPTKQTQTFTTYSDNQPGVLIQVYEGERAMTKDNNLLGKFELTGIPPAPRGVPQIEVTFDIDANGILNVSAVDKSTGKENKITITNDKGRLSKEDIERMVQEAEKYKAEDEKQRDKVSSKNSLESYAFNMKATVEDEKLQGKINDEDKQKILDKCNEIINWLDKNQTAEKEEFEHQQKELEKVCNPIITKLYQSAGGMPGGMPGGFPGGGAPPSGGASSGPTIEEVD

| Substance | relative affinity for Hsc70 | competition with p5 peptide for binding to Hsc70 (fluorescence anisotropy 485/516 nm) |
| --- | --- | --- |
| EREQMAISGGFIRR [SNCP, peptide … from the LOOP-SNC domain of SNAP-25] | significantly higher affinity than LOOPP | – |
| RRMLQLVEESK [SNNP, peptide … from the SNN domain of SNAP-25] | significantly higher affinity than LOOPP | – |
| synaptosomal-associated 25 kDa protein [SNAP-25] | – | competed with p5 peptide for binding to Hsc70 |
